US20170340636A1, “COMPOSITIONS AND METHODS FOR INHIBITION OF AUTOPHAGY” (Board of Regents, The University of Texas System, priority 2016, published 2017)

Columns and labels:
[1] = tested on: U2OS GFP-LC3 cells; experiment: p62 accumulation by western blot (autophagic flux); type: cell-based, human; settings: 50 μM, 24 hours
Method: FIG. 4A) U2OS cells stably expressing the GFP-LC3 fusion transgene were treated with the indicated compound at 50 μM concentration for 24 hours before GFP fluorescence was measured by flow cytometry. The median fluorescent value from 20,000 cells per condition was normalized to that of vehicle alone (DMSO) within a given experiment. The mean+SD of >2 independent experiments is shown. ****, p<0.0001; ***, p<0.001; **, p<0.01; ns, p>0.05 versus vehicle alone (DMSO) by unpaired t test. FIG. 4B) TAOK2 inhibitors induce accumulation of p62. U2OS GFP-LC3 cells were treated with the indicated compounds at 50 μM concentration, or DMSO alone, for 24 hours. Lysates were collected and analyzed by western blot using the indicated antibodies. XPB was used as a loading control.
U2OS GFP-LC3 cells were seeded in 6-well plates at 150,000 cells per well in Dulbecco's Modified Eagle Medium supplemented with 10% fetal bovine serum. Twenty-four hours after seeding, the indicated compounds were added to a final concentration of 50 µM, or an equivalent volume of vehicle alone (DMSO) was added. Twenty-four hours after compound addition, cells were rinsed twice with PBS and then lysed in 2× sample buffer. Lysates were boiled for 5 minutes, sonicated to shear DNA, separated by SDS-PAGE, and transferred to PVDF membranes (Biorad). The membranes were blocked in 5% milk in TBS-T (Tris-Buffered-Saline, Tween 20) for one hour at room temperature and then incubated with primary antibody in blocking solution overnight at 4° C. Membranes were then washed, incubated with secondary antibody in blocking solution, washed again, and analyzed by enhanced chemiluminescence followed by exposure to film.
Degradation of the autophagy scaffold and LC3 binding protein p62 is a second marker of autophagic flux. p62 degradation was assayed by Western blotting (FIG. 4B).

[2] = target: T1, TAOK2 (Rattus norvegicus, UniProt Q9JLS3); experiment: Differential scanning fluorimetry (DSF) binding assay against TAOK2; settings: DSF melt temperature shift of TAOK2, 5 μM TAOK2, compound 1 μM
T1 construct: made in house
T1 sequence (Q9JLS3 1-320 limits assumed): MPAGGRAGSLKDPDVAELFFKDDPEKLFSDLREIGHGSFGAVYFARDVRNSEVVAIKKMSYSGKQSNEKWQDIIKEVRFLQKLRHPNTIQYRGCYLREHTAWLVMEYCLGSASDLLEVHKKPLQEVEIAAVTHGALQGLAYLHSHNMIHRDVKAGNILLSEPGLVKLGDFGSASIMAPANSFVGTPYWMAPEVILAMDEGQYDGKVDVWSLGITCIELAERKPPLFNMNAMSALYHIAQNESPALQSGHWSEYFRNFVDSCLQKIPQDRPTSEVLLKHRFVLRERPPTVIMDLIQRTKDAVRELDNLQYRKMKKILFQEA
Method: (§1) Differential scanning fluorimetry binding assays of selected compounds against TAOK2 were conducted to measure strength of compound binding. A solution of 5 μM TAOK2, 50 mM MgCl2, 50 mM HEPES pH 7.5, and 2.5x SyproOrange(Life Technologies) was made. Compound was added to a final concentration of 1 μM. 25 μl of the reaction solution was added to the wells of a Biorad Multiplate 96 wellclear PCR plate. The plate was covered with a Biorad Microseal ‘B’ seal. Plates were read in a Biorad CFX96 Real-Time PCR system. The temperature was increased from 4° C. to 80° C., with fluorescence measurements being taken every 0.5° C. in the 6-FAM Fluorescein channel. The fluorescence response to heat curve was fit to a binding isotherm in order to determine the inflection point, which was taken as the melt temperature (Tm).
The prevalence of multiple heterocycles in the compounds is reflective of the composition of the screen (described in Methods in Supplemental Material). These 13 compounds were purchased from Chembridge Inc. and ChemDiv Inc. for measurement of direct binding using Differential Scanning Fluorimetry (DSF). DSF measures protein melt temperature (Tm) with a lipophilic dye (SyproOrange). As the temperature of the solution is increased, measurements of dye fluorescence are taken. When the protein begins to denature, hydrophobic regions in the protein are exposed, and the dye is able to bind. This binding insulates the dye from the surrounding water, reducing quenching effects and allowing fluorescence. Binding of small molecules to protein has a stabilizing effect, and this is seen by an increase in melt temperature (Table 1). The ΔTm values ranged from 3.0 to −0.6° C. The three compounds with the highest positive shifts were SW034538, SW163112, and SW083688, with 3° C., 2.2° C., and 2° C. shifts, respectively.

[3] = target: p38 (Homo sapiens, UniProt Q16539); experiment: DSF against p38 (selectivity panel of MAPK cascade members); type: binding; settings: difference between the TAOK2 ΔTm and that of p38, DSF
Method: as §1
The difference between the TAOK2 ΔTm and that of p38 and ASK1 was determined. […] The majority of the other compounds were also preferentially inhibitory toward TAOK2. Of the 13 compounds, SW034538, SW172006 and SW083688 were cross-verified for selectivity by performing a specificity screen against 45 kinases commercially at Eurofins Cerep, Inc. (FIG. 3).

p38, sequence (Q16539 whole entry): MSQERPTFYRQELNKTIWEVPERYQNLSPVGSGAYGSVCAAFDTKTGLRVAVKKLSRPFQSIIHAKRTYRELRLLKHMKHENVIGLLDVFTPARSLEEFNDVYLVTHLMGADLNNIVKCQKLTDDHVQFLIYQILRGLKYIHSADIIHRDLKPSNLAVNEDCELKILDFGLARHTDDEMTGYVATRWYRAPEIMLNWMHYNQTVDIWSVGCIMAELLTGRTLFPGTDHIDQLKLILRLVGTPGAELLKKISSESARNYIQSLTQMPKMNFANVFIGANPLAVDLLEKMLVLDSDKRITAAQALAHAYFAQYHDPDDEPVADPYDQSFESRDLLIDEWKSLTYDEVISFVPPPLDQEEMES

| Compound | abundance of p62 [1] | ΔTm at 1 µM [2] [°C] | ΔΔTm (p38) [3] [°C] |
| --- | --- | --- | --- |
| CCC(=O)Nc1nc(C)c(-c2csc(Nc3cc(OC)ccc3OC)n2)s1 [SW034538] | did not appear to increase the appearance of p62 | 3 | 2.8 |
| CCOCCCn1c(=S)[nH]c2cc(C(=O)NCC3COc4ccccc4O3)ccc2c1=O (stereo not drawn) [SW083688] | increased the abundance of p62 | 2 | 2.0 |
| CS(=O)(=O)c1ccc2nc(NC(=O)CCCOc3ccc(Cl)cc3)sc2c1 [SW172006] | increased the abundance of p62 | 1.3 | 2.0 |
